{"source": "paper PMC5064907", "about": "“Tissue expression and antibacterial activity of host defense peptides in chicken” (BMC Veterinary Research, 2016)", "key": {"[1]": {"test_system": "Escherichia coli ATCC 25922", "type": "cell-based", "conditions": "for Antibacterial activity over the tested concentrations: 0.5, 1, 2.5 and 5 μM peptide, Fig. 2b; for Antibacterial activity over the tested concentrations / Killing activity among tested HDPs at less than 5 μM: 2 h; for Antibacterial activity over the tested concentrations / Antibacterial (lytic) activity against E.coli at 5 μM: 37 °C; for Relative antibacterial effect among all tested chicken HDPs / Killing activity among tested HDPs at less than 5 μM: E. coli; for Relative antibacterial effect among all tested chicken HDPs: under test conditions (0.5-5 μM, 2 h); for Bacteria killed at 0.5 μM: ATCC 25922, 2 h; for Antibacterial (lytic) activity against E.coli at 5 μM: 5 μM peptide, 6 × 10^6 CFU/ml E. coli ATCC 25922, 2 h, luminescence, Fig. 2a; for Killing activity among tested HDPs at less than 5 μM: less than 5 μM peptide; for Efficiency in reducing E. coli cell viability and damaging cell membranes (comparison among the CATHs): discussion summary of the viability and membrane damage data", "protocol": "Gram-negative bacteria, Escherichia coli ATCC 25922, were purchased from Korean Collection for Type Culture and tested against each peptide. Cell viability analysis was carried out as previously reported. Briefly, 6 × 10^6 colony–forming units (CFU)/ml bacteria suspensions (90 μl) were placed into 96 well plates, followed by the addition of 10 μl of serial diluted peptide (final 0, 0.5, 1, 2.5, 5 μM) in triplicate. After 2 h incubation at 37 °C, equal volume of BacTiter-Glo™ Reagent (Promega) was added, and incubated for 5 min after which luminescence was measured with GloMax-Multi Detection System (Promega).\nE. coli (6 × 10^6) were incubated with indicated amounts of peptide for 2 h and cell viability was compared to untreated cells. […] Each bar represents the mean ± S.D. value of at least three independent experiments. Non-treated cell considered as 100 % cell viability and peptides treated cell viability was compared and calculated in percentile. *** indicate p ≤ 0.001, ** indicate p ≤ 0.01 and * indicate p ≤ 0.05"}, "E.coli": {"test_system": "E.coli", "conditions": "previous report; cited from earlier work", "text": "Even though many tested chicken HDPs show varying efficiencies against pathogens, the majority kill bacteria at low concentration. […] These four peptides have very low net charge from 0.1 to 1.8. AvBD4 has 24 % hydrophobicity with 5.8 net charge and can kill bacteria very well compared to AvBD5, -8 and -13 that have the same hydrophobicity but lower cationicity of 0.1 to […]."}, "E. coli": {"test_system": "E. coli", "test": "Detection of damaged E. coli membranes, LIVE/DEAD BacLight staining, confocal laser scanning microscopy", "type": "cell-based, Escherichia coli", "conditions": "5 μM peptide, 6.5 × 10^6 CFU E. coli, 10 mM phosphate buffer pH 7.0, 37 °C, 2 h", "protocol": "Fig. 3 Escherichia coli viability and membrane damage following treatment with cathelicidins. Membrane damage in E. coli treated with each synthetic cathelicidin peptide (5 μM) was detected with a LIVE/DEAD BacLight Bacterial Viability Kit. Green fluorescence indicates live bacteria with intact membranes; red fluorescence indicates dead bacteria with damaged membranes."}}, "note": "Where two headings read alike, the source gives them in different places. Residues, ends and D or L forms follow the SMILES beside them. No end group written: not given here.", "data": [{"molecule": "CSCC[C@H](NC(=O)[C@H](Cc1c[nH]cn1)NC(=O)[C@H](Cc1ccc(O)cc1)NC(=O)[C@@H](N)CCCNC(=N)N)C(=O)N[C@@H](CCC(N)=O)C(=O)N[C@@H](CS)C(=O)NCC(=O)N[C@@H](Cc1ccc(O)cc1)C(=O)N[C@@H](CCCNC(=N)N)C(=O)NCC(=O)N[C@H](C(=O)N[C@@H](Cc1ccccc1)C(=O)N[C@@H](CS)C(=O)N[C@H](C(=O)N1CCC[C@H]1C(=O)NCC(=O)N[C@@H](CCCCN)C(=O)N[C@@H](CS)C(=O)N1CCC[C@H]1C(=O)N[C@@H](Cc1ccc(O)cc1)C(=O)NCC(=O)N[C@@H](CC(N)=O)C(=O)N[C@@H](C)C(=O)N[C@@H](Cc1ccc(O)cc1)C(=O)N[C@@H](CC(C)C)C(=O)NCC(=O)N[C@@H](CC(C)C)C(=O)N[C@@H](CS)C(=O)N[C@@H](CCCNC(=N)N)C(=O)N1CCC[C@H]1C(=O)N[C@@H](CCCCN)C(=O)N[C@@H](Cc1ccc(O)cc1)C(=O)N[C@@H](CO)C(=O)N[C@@H](CS)C(=O)N[C@@H](CS)C(=O)N[C@@H](CCCNC(=N)N)C(=O)N[C@@H](Cc1c[nH]c2ccccc12)C(=O)O)[C@@H](C)O)[C@@H](C)O", "note": "[AvBD4] (H-RYHMQCGYRGTFCTPGKCPYGNAYLGLCRPKYSCCRW-OH; N-terminus and C-terminus assumed)", "values": [{"measurement": "Antibacterial activity over the tested concentrations", "setting": "[1]; listed as BD4", "result": "strongest activity among the three"}, {"measurement": "Relative antibacterial effect among all tested chicken HDPs", "setting": "[1]", "result": "strongest antibacterial effect among all tested chicken HDPs"}, {"measurement": "Relative antibacterial effect among all tested chicken HDPs", "setting": "[1]; listed as β-defensin4", "result": "strongest antibacterial activity among all tested chicken HDPs"}]}, {"molecule": "CC[C@H](C)[C@H](NC(=O)CNC(=O)[C@H](CC(N)=O)NC(=O)[C@H](CC(N)=O)NC(=O)[C@H](CS)NC(=O)[C@@H](NC(=O)CNC(=O)[C@@H](NC(=O)[C@H](Cc1c[nH]c2ccccc12)NC(=O)[C@H](Cc1ccc(O)cc1)NC(=O)[C@H](Cc1ccc(O)cc1)NC(=O)[C@@H]1CCCN1C(=O)[C@H](CCCNC(=N)N)NC(=O)[C@H](CCCNC(=N)N)NC(=O)[C@H](CS)NC(=O)[C@@H](NC(=O)CNC(=O)[C@@H]1CCCN1C(=O)[C@H](Cc1ccccc1)NC(=O)[C@H](CS)NC(=O)[C@H](CC(C)C)NC(=O)CNC(=O)[C@H](CC(N)=O)NC(=O)[C@H](CCCNC(=N)N)NC(=O)[C@H](CC(C)C)NC(=O)[C@H](CCCNC(=N)N)NC(=O)[C@H](CS)NC(=O)[C@@H](NC(=O)[C@H](CC(=O)O)NC(=O)[C@@H](NC(=O)[C@@H]1CCCN1C(=O)[C@@H](N)CCCNC(=N)N)[C@@H](C)CC)[C@@H](C)O)[C@@H](C)CC)[C@@H](C)CC)[C@@H](C)O)C(=O)NCC(=O)N[C@@H](CO)C(=O)N[C@@H](CS)C(=O)N[C@@H](CS)C(=O)N[C@@H](C)C(=O)N[C@@H](CCCNC(=N)N)C(=O)O", "note": "[AvBD7] (H-RPIDTCRLRNGLCFPGICRRPYYWIGTCNNGIGSCCAR-OH; N-terminus and C-terminus assumed)", "values": [{"measurement": "Antibacterial activity over the tested concentrations", "setting": "[1]", "result": "very strong antibacterial activity at all concentration"}]}, {"molecule": "CC[C@H](C)[C@H](NC(=O)[C@H](C)NC(=O)[C@H](CC(=O)O)NC(=O)[C@H](CCC(=O)O)NC(=O)[C@H](CC(=O)O)NC(=O)[C@@H]1CCCN1)C(=O)N[C@@H](CC(N)=O)C(=O)N[C@@H](CC(N)=O)C(=O)N[C@@H](C)C(=O)N[C@@H](CC(C)C)C(=O)N[C@@H](CC(N)=O)C(=O)N[C@@H](CCCCN)C(=O)N[C@H](C(=O)N[C@@H](CS)C(=O)N[C@@H](CO)C(=O)N[C@H](C(=O)NCC(=O)N[C@@H](CCCNC(=N)N)C(=O)N[C@@H](CCCNC(=N)N)C(=O)N[C@@H](CCC(N)=O)C(=O)N[C@@H](CCCNC(=N)N)C(=O)N[C@@H](CO)C(=O)N[C@H](C(=O)N[C@@H](CS)C(=O)N[C@@H](CCCCN)C(=O)N[C@@H](CCC(N)=O)C(=O)N[C@@H](CC(C)C)C(=O)N[C@@H](CC(C)C)C(=O)N[C@@H](CCCCN)C(=O)N[C@@H](CCCCN)C(=O)O)[C@@H](C)CC)[C@@H](C)O)C(C)C", "note": "[cNK3] (H-PDEDAINNALNKVCSTGRRQRSICKQLLKK-OH; N-terminus and C-terminus assumed)", "values": [{"measurement": "Antibacterial activity over the tested concentrations", "setting": "[1]", "result": "very strong antibacterial activity at all concentration"}, {"measurement": "Bacteria killed at 0.5 μM", "setting": "[1]", "result": 50, "unit": "%"}]}, {"molecule": "GLPQDCERRGGFCSHKSCPPGIGRIGLCSKEDFCCRS [AvBD5, synthetic linear peptide corresponding to chicken avian β-defensin 5]", "values": [{"measurement": "Antibacterial (lytic) activity against E.coli at 5 μM", "setting": "[1]", "result": "very weak lytic activity"}, {"measurement": "Killing activity among tested HDPs at less than 5 μM", "setting": "[1]", "result": "minimal killing activity"}]}, {"molecule": "NNEAQCEQAGGICSKDHCFHLHTRAFGHCQRGVPCCRTVYD [AvBD8, synthetic linear peptide corresponding to chicken avian β-defensin 8]", "values": [{"measurement": "Antibacterial (lytic) activity against E.coli at 5 μM", "setting": "[1]", "result": "very weak lytic activity"}, {"measurement": "Killing activity among tested HDPs at less than 5 μM", "setting": "[1]", "result": "minimal killing activity"}, {"measurement": "Lethal dose (LD)50 against E.coli", "setting": "E.coli", "result": 27, "unit": "µM"}]}, {"molecule": "PDSCNHDRGLCRVGNCNPGEYLAKYCFEPVILLCCKPLSPTPTKT [AvBD12, synthetic linear peptide corresponding to chicken avian β-defensin 12]", "values": [{"measurement": "Antibacterial (lytic) activity against E.coli at 5 μM", "setting": "[1]", "result": "very weak lytic activity"}, {"measurement": "Killing activity among tested HDPs at less than 5 μM", "setting": "[1]", "result": "minimal killing activity"}]}, {"molecule": "PDTVACRTQGNFCRAGACPPTFTISGQCHGGLLNCCAKIPAQ [AvBD10, synthetic linear peptide corresponding to chicken avian β-defensin 10]", "values": [{"measurement": "Antibacterial (lytic) activity against E.coli at 5 μM", "setting": "[1]", "result": "very weak lytic activity"}, {"measurement": "Killing activity among tested HDPs at less than 5 μM", "setting": "[1]", "result": "minimal killing activity"}]}, {"molecule": "PIRNWWIRIWEWLNGIRKRLRQRSPFYVRGHLNVTSTPQP [CATB1]", "values": [{"measurement": "E. coli membrane damage (red fluorescence, LIVE/DEAD BacLight)", "setting": "E. coli", "result": "greater with CATH2 or CATH3 than with CATH1 or CATHB1"}, {"measurement": "Efficiency in reducing E. coli cell viability and damaging cell membranes (comparison among the CATHs)", "setting": "[1]", "result": "weak antibacterial activity compared to others"}]}, {"molecule": "PVLVQRGRFGRFLRKIRRFRPKVTITIQGSARFG [CATH2]", "values": [{"measurement": "E. coli membrane damage (red fluorescence, LIVE/DEAD BacLight)", "setting": "E. coli", "result": "greater with CATH2 or CATH3 than with CATH1 or CATHB1"}, {"measurement": "Antibacterial activity over the tested concentrations", "setting": "[1]", "result": "very strong antibacterial activity at all concentration"}, {"measurement": "Bacteria killed at 0.5 μM", "setting": "[1]", "result": 50, "unit": "%"}, {"measurement": "Efficiency in reducing E. coli cell viability and damaging cell membranes (comparison among the CATHs)", "setting": "[1]", "result": "highest efficiency"}]}, {"molecule": "PVRVKRFWPLVPVAINTVAAGINLYKAIRRK [CATH3]", "values": [{"measurement": "E. coli membrane damage (red fluorescence, LIVE/DEAD BacLight)", "setting": "E. coli", "result": "greater with CATH2 or CATH3 than with CATH1 or CATHB1"}, {"measurement": "Antibacterial activity over the tested concentrations", "setting": "[1]", "result": "very strong antibacterial activity at all concentration"}, {"measurement": "Bacteria killed at 0.5 μM", "setting": "[1]", "result": 50, "unit": "%"}, {"measurement": "Efficiency in reducing E. coli cell viability and damaging cell membranes (comparison among the CATHs)", "setting": "[1]", "result": "highest efficiency"}]}, {"molecule": "TATQCRIRGGFCRVGSCRFPHIAIGKCATFISCCGR [AvBD3, synthetic linear peptide corresponding to chicken avian β-defensin 3]", "values": [{"measurement": "Antibacterial activity over the tested concentrations", "setting": "[1]", "result": "kill effectively over all tested concentrations"}]}]}
